{GalNAc3} = trishexylamino-C6 triantennary GalNAc conjugate; e = 2'-O-(2-methoxyethyl) (MOE); d = 2'-deoxy (DNA)
Key:
BSEP = tested on: T1, BSEP; test: BSEP substrate study in Sf9 membrane vesicles; format: in vitro ADME; conditions: 10 μM ASO, ATP vs AMP
T1 construct: purchased Life Technologies; host or cells: Sf9 cells (membrane vesicles)
Procedure: The test system included a 96-well flat bottom plate containing a suspension of vesicles and a 96-well glass fiber filtration plate. Transport experiments were initiated with the addition of Mg-ATP (for ATP-dependent BSEP uptake) or AMP (non-ATP-dependent uptake) to appropriate wells. Preparation of the flat-bottom plates included incubation with blocking buffer for 60 min at 37°C with orbital shaking at 120 rpm. After 60 min, the blocking buffer was completely removed and assay uptake buffer solutions were added. For BSEP inhibition studies, solutions contained 1 μM [^3H]-taurocholic acid as a substrate and either assay vehicle, test article (at 100 μM), or reference inhibitor (300 μM rifampicin). For BSEP substrate studies, solutions contained either 1 μM [^3H]-taurocholic acid or 10 μM test article. Vesicles were added to assay plates and incubated at 37°C with orbital shaking at 120 rpm for 15 min. To initiate the assay, either Mg-ATP or AMP was added to test wells at a final concentration of 5 mM. Plates were incubated at 37°C with orbital shaking at 120 rpm for 15 min. A glass fiber filtration plate was incubated with blocking buffer for 2 min. Vacuum was then applied to remove the blocking buffer, and ice-cold wash buffer was added to the filtration plate. Vesicular transport was quenched by adding ice-cold wash buffer. Assay samples were then mixed as diluted in wash buffer and 175 μL was transferred into the 96-well glass fiber filtration plate to separate vesicles. […] These samples were counted using a 1450 Microbeta (Perkin-Elmer). […] The test article was quantitated by LC-MS. […]
Signal to noise for the BSEP probe substrate was calculated by dividing the uptake of the probe substrate in BSEP-expressing vesicles in the presence of ATP by the uptake of the BSEP substrate in the vesicles in the presence of AMP. Percent inhibition in the presence of the test article or the reference inhibitors was calculated as: %inhibition=100−(100×(ATP−dependent,transportor−mediatedaccumulation)withinhibitor/(ATP−dependent,transportor−mediatedaccumulation)withoutinhibitor).

human hepatocytes = test: Hepatocyte uptake (cell pellet and supernatant concentrations by LC-UV/MS); format: in vitro ADME; conditions: for Cellular concentration in hepatocytes: test concentration of 1.00 μM
Procedure: A time-course experiment was conducted in triplicate for each concentration of test compound for 0, 30, 60, and 120 min incubations at 37°C with 5% CO2. At the end of each respective time point, the cell suspensions were centrifuged for 8 min at a speed of 50 × g, and the supernatant from each sample was collected. The cell pellets were washed by resuspension in Williams’ Medium E, followed by centrifugation at 50 × g for 8 min. The supernatant from the wash step was discarded and the remaining cell pellets were kept for analysis. Cell pellets and respective supernatants were measured for the presence of ASO by LC-MS.
Samples were analyzed using a tandem LC-UV/MS method. A total of 72 samples per ASO, corresponding to human hepatocyte cells and supernatant fractions, was assayed. Samples, curves, and controls (QCs) were aliquoted into 96-well plates and internal standard was added. Aliquots in 96-well plates were extracted via a liquid-liquid extraction using ammonium hydroxide and phenol:chloroform:isoamyl alcohol (25:24:1). The aqueous layer was then further processed via solid phase extraction (Phenomenex, Strata X SPE), and then dried down under nitrogen and reconstituted in 140 μL of water containing 100 μM EDTA. Samples were then injected onto an Agilent 6130 LC-MS system for analysis. Two curves were created for quantitation, one utilizing UV absorbance at 260 nm and an additional curve using single ion monitoring data from the mass spectrometer. The calibration range using the MS detector was 0.0640–641 μM with liver homogenate, as used to quantitate the concentration in hepatocyte pellet samples. A minimum signal-to-noise ratio of 5:1 was used to distinguish ASO peaks from background noise. […] Acceptance criteria for calibration and QC standards were set to 85%–115% of nominal values. For the MS, three QC levels were run in triplicate at 1.60 μM, 160 μM, and 481 μM and eight of the nine QCs passed. For the UV, three QC levels were run in triplicate at 160 μM, 481 μM, and 3,205 μM and all QCs passed. All samples were stored at −70°C ± 10°C upon receipt. Hepatocyte cell count conversion to μM liver weight equivalent was calculated by converting the number of hepatocytes per sample to the liver weight equivalent: [(0.1 × 10^6 cells per sample)/128 × 10^6 cells/g)] × […] = 0.78 mg, where 1 g of liver contains 128 × 10^6 cells/g. Supernatant concentrations are calculated assuming a 100% recovery and that 1 mL William E Medium is equal to 1 g. The calibration range for ASOs in transporter studies was 0.01–10 μM in 100 μL for RLT buffer and 0.005–10 μM in 100 μL for HBSS buffer.

Row | Substance | BSEP-mediated uptake relative to corresponding controls (BSEP) [fold] | Average cellular concentration in hepatocytes (human hepatocytes; after 30-min incubation) [µM] | Average cellular concentration in hepatocytes (human hepatocytes; after 120-min incubation) [µM] | Cellular concentration in hepatocytes (human hepatocytes; after 120 min of incubation) [µM] | Cellular concentration in hepatocytes (human hepatocytes; time points 0–60 min)
1 | ISIS 304801: 20-mer (5-10-5) 2′-MOE gapmer PS backbone antisense inhibitor of apoC-III, sequence AGCTTCTTGTCCAGCTTTAT (sugars from the 5' end e5 d10 e5, all phosphorothioate, methylation of C not given here) | < 2 | 56.3 | 140 | – | –
2 | ISIS 681257: 20-mer 2′-MOE gapmer PS/PO mixed backbone ASO conjugated to 5′-trishexylamino GalNAc3, targets Lp(a), sequence TGCTCCGTTGGTGCTTGTTC (5' {GalNAc3}, sugars by position and backbone not given here; 2'-MOE gapmer with mixed PS/PO backbone) | < 2 | 14.0 | 50.6 | 0.626 | below the level of quantitation
3 | ISIS 420915: 20-mer 2′-MOE gapmer PS backbone antisense inhibitor of transthyretin, sequence TCTTGGTTACATGAAATCCC (all phosphorothioate, sugars by position and methylation of C not given here; 2'-MOE gapmer) | < 2 | 52.2 | 106 | – | –
